Laboratory results as given in the supplement of paper PMC10307832.

Key:
Experiment in all cases: relative viability (nuclei count vs DMSO), 5 days (fraction); higher = more cells survive
Cediranib + Foretinib = compound: COc1cc2c(Oc3ccc4[nH]c(C)cc4c3F)ncnc2cc1OCCCN1CCCC1 [Cediranib] + COc1cc2c(Oc3ccc(NC(=O)C4(C(=O)Nc5ccc(F)cc5)CC4)cc3F)ccnc2cc1OCCCN1CCOCC1 [Foretinib] (partner 0.25 µM)
Outline: (§1)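 Relative viability was taken as the ratio of nuclei in treated wells to nuclei in vehicle wells. Lung cancer cell lines in 1536-well plates received compounds by pin tool one day after seeding, either one drug alone or a fixed anchor-drug dose plus five library-drug doses (not always all listed) in √10 steps. Nuclei were counted on 4× images after 5 days of treatment, and values are medians of duplicate plates.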

Decitabine + Alpelisib = compound: Nc1ncn([C@H]2C[C@H](O)[C@@H](CO)O2)c(=O)n1 [Decitabine] + Cc1nc(NC(=O)N2CCC[C@H]2C(N)=O)sc1-c1ccnc(C(C)(C)C(F)(F)F)c1 [Alpelisib] (partner 2 µM)
Outline: as §1

Decitabine + Pemetrexed = compound: Nc1ncn([C@H]2C[C@H](O)[C@@H](CO)O2)c(=O)n1 [Decitabine] + Nc1nc2[nH]cc(CCc3ccc(C(=O)N[C@@H](CCC(=O)O)C(=O)O)cc3)c2c(=O)[nH]1 [Pemetrexed] (partner 0.2 µM)
Outline: as §1

Halofuginone + Lapatinib = compound: O=C(C[C@H]1NCCC[C@@H]1O)Cn1cnc2cc(Br)c(Cl)cc2c1=O (racemic) [Halofuginone] + CS(=O)(=O)CCNCc1ccc(-c2ccc3ncnc(Nc4ccc(OCc5cccc(F)c5)c(Cl)c4)c3c2)o1 [Lapatinib] (partner 2 µM)
Outline: as §1

| Cell Line | relative viability (Cediranib + Foretinib; first compound 0.04 µM) | relative viability (Cediranib + Foretinib; first compound 0.1265 µM) | relative viability (Cediranib + Foretinib; first compound 0.4 µM) | relative viability (Cediranib + Foretinib; first compound 1.265 µM) | relative viability (Cediranib + Foretinib; first compound 4 µM) | relative viability (Decitabine + Alpelisib; first compound 0.04 µM) | relative viability (Decitabine + Alpelisib; first compound 0.1265 µM) | relative viability (Decitabine + Alpelisib; first compound 0.4 µM) | relative viability (Decitabine + Alpelisib; first compound 1.265 µM) | relative viability (Decitabine + Alpelisib; first compound 4 µM) | relative viability (Decitabine + Pemetrexed; first compound 0.04 µM) | relative viability (Decitabine + Pemetrexed; first compound 0.1265 µM) | relative viability (Decitabine + Pemetrexed; first compound 0.4 µM) | relative viability (Decitabine + Pemetrexed; first compound 4 µM) | relative viability (Halofuginone + Lapatinib; first compound 0.001 µM) | relative viability (Halofuginone + Lapatinib; first compound 0.003162 µM) | relative viability (Halofuginone + Lapatinib; first compound 0.01 µM) | relative viability (Halofuginone + Lapatinib; first compound 0.03162 µM) | relative viability (Halofuginone + Lapatinib; first compound 0.1 µM) | relative viability (Decitabine + Pemetrexed; first compound 1.265 µM) |
| --- | --- | --- | --- | --- | --- | --- | --- | --- | --- | --- | --- | --- | --- | --- | --- | --- | --- | --- | --- | --- |
| 201T | 1.28 | 1.57 | 1.03 | 1.02 | 0.754 | 1 | 1.08 | 1.12 | 0.949 | 0.923 | 0.297 | 0.286 | 0.227 | 0.254 | 1.02 | 0.97 | 1.05 | 1.04 | 1.04 | – |
| NCI-H460 | 1.01 | 1.02 | 1.02 | 0.944 | 1.04 | 0.425 | 0.575 | 0.348 | 0.268 | 0.191 | 0.0582 | 0.0551 | 0.0502 | 0.0449 | 0.948 | 1.27 | 0.967 | 0.573 | 0.11 | 0.0449 |
| NCI-H596 | 1.04 | 0.833 | 0.974 | – | 0.926 | 0.449 | 0.46 | 0.462 | 0.451 | 0.407 | 0.582 | 0.456 | 0.338 | 0.484 | 1.06 | 1.18 | 1.02 | 1.07 | 0.661 | 0.44 |
| HARA | 0.92 | – | 0.766 | 0.868 | 0.706 | 0.73 | 0.749 | 0.474 | 0.365 | 0.249 | 0.2 | 0.247 | 0.209 | 0.211 | 0.705 | 0.637 | 0.721 | 0.667 | 0.555 | 0.202 |
| NCI-H2170 | 1.02 | 0.987 | 0.931 | 1.01 | 1.12 | 0.558 | 0.674 | 0.616 | 0.43 | 0.315 | 0.276 | 0.221 | 0.227 | 0.21 | 0.279 | 0.296 | 0.259 | 0.291 | 0.249 | 0.217 |
| NCI-H2126 | 1.26 | 1.2 | 1.04 | 1.16 | 1.05 | 0.673 | 0.659 | 0.521 | 0.521 | 0.424 | 0.68 | 0.648 | 0.391 | 0.341 | 0.798 | 0.732 | 0.773 | 0.743 | 0.683 | 0.453 |
| HCC-827 | 1.2 | – | 0.986 | 1.05 | 1.03 | – | 0.426 | 0.356 | 0.279 | 0.311 | 0.161 | 0.585 | 0.198 | 0.219 | 0.192 | 0.189 | 0.236 | 0.233 | 0.202 | 0.202 |
| NCI-H650 | 1.03 | 0.944 | 1 | 1.09 | 1.02 | 0.739 | 0.538 | 0.484 | 0.326 | 0.29 | 0.686 | 0.588 | 0.382 | 0.266 | 1.12 | 0.48 | 1 | 0.775 | 0.515 | 0.273 |
